Laboratory results from the supplement of paper PMC10307832.

Tests used:
Experiment in all cases: relative viability (nuclei count vs DMSO), 5 days (fraction); higher = more cells survive
201T = system: 201T
Procedure, shortened: (§1)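 Each reported value is a median over duplicate plates. It expresses relative viability: treated-well nuclei count divided by vehicle-well nuclei count. Lung cancer cell lines in 1536-well plates were dosed by pin tool a day after seeding, alone with one drug or with a fixed anchor-drug dose plus five library-drug doses (not always all listed) in √10 steps, and nuclei were counted after 5 days.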

A-427 = system: A-427
Procedure, shortened: as §1

BEN = system: BEN
Procedure, shortened: as §1

EKVX = system: EKVX
Procedure, shortened: as §1

HARA = system: HARA
Procedure, shortened: as §1

HCC-15 = system: HCC-15
Procedure, shortened: as §1

HCC-44 = system: HCC-44
Procedure, shortened: as §1

HCC-827 = system: HCC-827
Procedure, shortened: as §1

NCI-H1437 = system: NCI-H1437
Procedure, shortened: as §1

NCI-H1792 = system: NCI-H1792
Procedure, shortened: as §1

NCI-H1975 = system: NCI-H1975
Procedure, shortened: as §1

NCI-H2342 = system: NCI-H2342
Procedure, shortened: as §1

NCI-H23 = system: NCI-H23
Procedure, shortened: as §1

NCI-H358 = system: NCI-H358
Procedure, shortened: as §1

NCI-H441 = system: NCI-H441
Procedure, shortened: as §1

NCI-H596 = system: NCI-H596
Procedure, shortened: as §1

NCI-H650 = system: NCI-H650
Procedure, shortened: as §1

NCI-H838 = system: NCI-H838
Procedure, shortened: as §1

SW 900 = system: SW 900
Procedure, shortened: as §1

COc1cc2nccc(Oc3ccc(NC(=O)Nc4cc(C)on4)c(Cl)c3)c2cc1OC [Tivozanib] + NC(=O)Nc1cc(-c2cccc(F)c2)sc1C(=O)N[C@H]1CCCNC1 [AZD7762] (partner 0.2 µM)
relative viability (201T; first compound 0.005 µM): 0.599 | relative viability (201T; first compound 0.01581 µM): 0.575 | relative viability (201T; first compound 0.05 µM): 0.659 | relative viability (201T; first compound 0.1581 µM): 0.595 | relative viability (201T; first compound 0.5 µM): 0.601 | relative viability (A-427; first compound 0.005 µM): 0.75 | relative viability (A-427; first compound 0.01581 µM): 0.795 | relative viability (A-427; first compound 0.05 µM): 0.728 | relative viability (A-427; first compound 0.1581 µM): 0.68 | relative viability (A-427; first compound 0.5 µM): 0.719 | relative viability (BEN; first compound 0.005 µM): 0.6 | relative viability (BEN; first compound 0.01581 µM): 0.712 | relative viability (BEN; first compound 0.05 µM): 0.869 | relative viability (BEN; first compound 0.1581 µM): 0.375 | relative viability (BEN; first compound 0.5 µM): 0.737 | relative viability (EKVX; first compound 0.005 µM): 0.592 | relative viability (EKVX; first compound 0.01581 µM): 0.695 | relative viability (EKVX; first compound 0.05 µM): 0.76 | relative viability (EKVX; first compound 0.1581 µM): 0.69 | relative viability (EKVX; first compound 0.5 µM): 0.689 | relative viability (HARA; first compound 0.005 µM): 0.268 | relative viability (HARA; first compound 0.01581 µM): 0.335 | relative viability (HARA; first compound 0.05 µM): 0.424 | relative viability (HARA; first compound 0.1581 µM): 0.231 | relative viability (HARA; first compound 0.5 µM): 0.267 | relative viability (HCC-15; first compound 0.005 µM): 1.18 | relative viability (HCC-15; first compound 0.01581 µM): 1.28 | relative viability (HCC-15; first compound 0.05 µM): 1.34 | relative viability (HCC-15; first compound 0.1581 µM): 1.29 | relative viability (HCC-15; first compound 0.5 µM): 1.33 | relative viability (HCC-44; first compound 0.005 µM): 0.996 | relative viability (HCC-44; first compound 0.01581 µM): 0.963 | relative viability (HCC-44; first compound 0.05 µM): 1.01 | relative viability (HCC-44; first compound 0.1581 µM): 1.09 | relative viability (HCC-44; first compound 0.5 µM): 1.01 | relative viability (HCC-827; first compound 0.005 µM): 0.202 | relative viability (HCC-827; first compound 0.01581 µM): 0.25 | relative viability (HCC-827; first compound 0.05 µM): 0.314 | relative viability (HCC-827; first compound 0.1581 µM): 0.185 | relative viability (HCC-827; first compound 0.5 µM): 0.194 | relative viability (NCI-H1437; first compound 0.005 µM): 1.12 | relative viability (NCI-H1437; first compound 0.01581 µM): 1.16 | relative viability (NCI-H1437; first compound 0.05 µM): 1.07 | relative viability (NCI-H1437; first compound 0.1581 µM): 1.17 | relative viability (NCI-H1437; first compound 0.5 µM): 1.04 | relative viability (NCI-H1792; first compound 0.005 µM): 0.641 | relative viability (NCI-H1792; first compound 0.01581 µM): 0.646 | relative viability (NCI-H1792; first compound 0.05 µM): 0.509 | relative viability (NCI-H1792; first compound 0.5 µM): 0.53 | relative viability (NCI-H1975; first compound 0.005 µM): 0.594 | relative viability (NCI-H1975; first compound 0.01581 µM): 0.742 | relative viability (NCI-H1975; first compound 0.05 µM): 0.746 | relative viability (NCI-H1975; first compound 0.1581 µM): 0.836 | relative viability (NCI-H1975; first compound 0.5 µM): 0.595 | relative viability (NCI-H2342; first compound 0.005 µM): 0.492 | relative viability (NCI-H2342; first compound 0.01581 µM): 0.431 | relative viability (NCI-H2342; first compound 0.05 µM): 0.609 | relative viability (NCI-H2342; first compound 0.5 µM): 0.414 | relative viability (NCI-H23; first compound 0.005 µM): 0.185 | relative viability (NCI-H23; first compound 0.01581 µM): 0.229 | relative viability (NCI-H23; first compound 0.05 µM): 0.295 | relative viability (NCI-H23; first compound 0.5 µM): 0.176 | relative viability (NCI-H358; first compound 0.005 µM): 0.449 | relative viability (NCI-H358; first compound 0.01581 µM): 0.621 | relative viability (NCI-H358; first compound 0.05 µM): 0.552 | relative viability (NCI-H358; first compound 0.1581 µM): 0.513 | relative viability (NCI-H358; first compound 0.5 µM): 0.469 | relative viability (NCI-H441; first compound 0.005 µM): 1.05 | relative viability (NCI-H441; first compound 0.01581 µM): 0.935 | relative viability (NCI-H441; first compound 0.05 µM): 1.28 | relative viability (NCI-H441; first compound 0.1581 µM): 1.35 | relative viability (NCI-H441; first compound 0.5 µM): 1.08 | relative viability (NCI-H596; first compound 0.005 µM): 1.03 | relative viability (NCI-H596; first compound 0.01581 µM): 1.1 | relative viability (NCI-H596; first compound 0.05 µM): 1.44 | relative viability (NCI-H596; first compound 0.5 µM): 1.06 | relative viability (NCI-H650; first compound 0.005 µM): 0.771 | relative viability (NCI-H650; first compound 0.01581 µM): 1.08 | relative viability (NCI-H650; first compound 0.05 µM): 0.976 | relative viability (NCI-H650; first compound 0.1581 µM): 0.958 | relative viability (NCI-H650; first compound 0.5 µM): 0.683 | relative viability (NCI-H838; first compound 0.005 µM): 0.918 | relative viability (NCI-H838; first compound 0.01581 µM): 0.895 | relative viability (NCI-H838; first compound 0.05 µM): 0.973 | relative viability (NCI-H838; first compound 0.1581 µM): 1.04 | relative viability (NCI-H838; first compound 0.5 µM): 0.95 | relative viability (SW 900; first compound 0.005 µM): 0.649 | relative viability (SW 900; first compound 0.01581 µM): 0.636 | relative viability (SW 900; first compound 0.05 µM): 0.675 | relative viability (SW 900; first compound 0.5 µM): 0.547
